Converted amounts (≈) assume the structure as drawn. The source made the active and inactive calls. No cut-off for these calls is given here.
Assays:
[1] = Hemolytic activity in mouse RBC at 62.5 ug/ml after 1 hr relative to control; format: ADME, cell-based, Erythrocyte; conditions: mouse red blood cells (erythrocytes), read-out: Activity
Cryptococcus neoformans [2] = experiment: Antifungal activity against Cryptococcus neoformans isolate CN2 measured after 48 hrs by CLSI M27-A3 protocol based method; format: functional; conditions: Cryptococcus neoformans, isolate CN2, 48 h; read-out: MIC
Candida albicans [3] = experiment: Antifungal activity against Candida albicans ATCC 10231 measured after 48 hrs by CLSI M27-A3 protocol based method; format: functional; conditions: ATCC 10231, 48 h
Candida albicans [4] = experiment: Antifungal activity against Candida albicans ATCC 64124 measured after 48 hrs by CLSI M27-A3 protocol based method; format: functional; conditions: Candida albicans, ATCC 64124, 48 h; read-out: MIC
Candida albicans [5] = experiment: Antifungal activity against fluconazole/ITC-susceptible Candida albicans ATCC MYA-2876 measured after 48 hrs by CLSI M27-A3 protocol based method; format: functional; conditions: Candida albicans, ATCC MYA-2876, 48 h
Candida albicans [6] = experiment: Antifungal activity against fluconazole/ITC-resistant Candida albicans ATCC 90819 measured after 48 hrs by CLSI M27-A3 protocol based method; format: functional; conditions: Candida albicans, ATCC 90819, 48 h; read-out: MIC
Candida albicans [7] = experiment: Antifungal activity against fluconazole/ITC-susceptible Candida albicans ATCC MYA-2310 measured after 48 hrs by CLSI M27-A3 protocol based method; format: functional; conditions: Candida albicans, ATCC MYA-2310, 48 h; read-out: MIC
Candida albicans [8] = experiment: Antifungal activity against fluconazole/ITC-resistant Candida albicans ATCC MYA-1237 measured after 48 hrs by CLSI M27-A3 protocol based method; format: functional; conditions: Candida albicans, ATCC MYA-1237, 48 h; read-out: MIC
Candida albicans [9] = experiment: Antifungal activity against fluconazole/ITC-resistant Candida albicans ATCC MYA-1003 measured after 48 hrs by CLSI M27-A3 protocol based method; format: functional; conditions: Candida albicans, ATCC MYA-1003, 48 h; read-out: MIC
Nakaseomyces glabratus [10] = experiment: Antifungal activity against Candida glabrata ATCC 2001 measured after 48 hrs by CLSI M27-A3 protocol based method; format: functional, CBS 138; conditions: Nakaseomyces glabratus, CBS 138, 48 h; read-out: MIC
Pichia kudriavzevii = experiment: Antifungal activity against Candida krusei ATCC 6258 measured after 48 hrs by CLSI M27-A3 protocol based method; format: functional; conditions: Pichia kudriavzevii, ATCC 6258, 48 h
Candida parapsilosis [11] = experiment: Antifungal activity against Candida parapsilosis ATCC 22019 measured after 48 hrs by CLSI M27-A3 protocol based method; format: functional; conditions: Lodderomyces parapsilosis, ATCC 22019, 48 h
Aspergillus nidulans = experiment: Antifungal activity against Aspergillus nidulans ATCC 38163 measured after 48 hrs by CLSI M38-A2 protocol based method; format: functional; conditions: ATCC 38163, 48 h
Aspergillus flavus = experiment: Antifungal activity against Aspergillus flavus ATCC MYA-3631 measured after 48 hrs by CLSI M38-A2 protocol based method; format: functional; conditions: ATCC MYA-3631, 48 h
Aspergillus terreus = experiment: Antifungal activity against Aspergillus terreus ATCC MYA-3633 measured after 48 hrs by CLSI M38-A2 protocol based method; format: functional; conditions: ATCC MYA-3633, 48 h
Nakaseomyces glabratus [12] = experiment: Antifungal activity against Candida glabrata isolate CG1 measured after 48 hrs by CLSI M27-A3 protocol based method; format: functional; conditions: Nakaseomyces glabratus, 48 h; read-out: MIC
Nakaseomyces glabratus [13] = experiment: Antifungal activity against Candida glabrata isolate CG2 measured after 48 hrs by CLSI M27-A3 protocol based method; format: functional; conditions: Nakaseomyces glabratus, isolate CG2, 48 h; read-out: MIC
Nakaseomyces glabratus [14] = experiment: Antifungal activity against Candida glabrata isolate CG3 measured after 48 hrs by CLSI M27-A3 protocol based method; format: functional; conditions: Nakaseomyces glabratus, 48 h; read-out: MIC
Candida parapsilosis [15] = experiment: Antifungal activity against Candida parapsilosis isolate CP1 measured after 48 hrs by CLSI M27-A3 protocol based method; format: functional; conditions: Lodderomyces parapsilosis, isolate CP1, 48 h
Candida parapsilosis [16] = experiment: Antifungal activity against Candida parapsilosis isolate CP2 measured after 48 hrs by CLSI M27-A3 protocol based method; format: functional; conditions: Lodderomyces parapsilosis, isolate CP2, 48 h
Cryptococcus neoformans [17] = experiment: Antifungal activity against Cryptococcus neoformans isolate CN1 measured after 48 hrs by CLSI M27-A3 protocol based method; format: functional; conditions: isolate CN1, 48 h
Cryptococcus neoformans [18] = experiment: Antifungal activity against Cryptococcus neoformans isolate CN3 measured after 48 hrs by CLSI M27-A3 protocol based method; format: functional; conditions: Cryptococcus neoformans, isolate CN3, 48 h; read-out: MIC
Candida parapsilosis [19] = experiment: Antifungal activity against Candida parapsilosis isolate CP3 measured after 48 hrs by CLSI M27-A3 protocol based method; format: functional; conditions: Lodderomyces parapsilosis, isolate CP3, 48 h
Candida albicans [20] = experiment: Fungistatic activity against Candida albicans ATCC 10231 at 4 times MIC incubated for 24 hrs by time kill assay; format: functional, organism-based
Candida parapsilosis [21] = experiment: Fungistatic activity against Candida parapsilosis ATCC 22019 up to 4 times MIC incubated for 24 hrs by time kill assay; format: functional, organism-based
[22] = Hemolytic activity in mouse RBC at 0.48 ug/ml after 1 hr relative to control; format: ADME, cell-based, Erythrocyte; conditions: mouse red blood cells (erythrocytes), read-out: Activity
[23] = Hemolytic activity in mouse RBC at […] ug/ml after 1 hr relative to control; format: ADME, cell-based, Erythrocyte; conditions: mouse red blood cells (erythrocytes), read-out: Activity
[24] = Hemolytic activity in mouse RBC at 1.95 ug/ml after 1 hr relative to control; format: ADME, cell-based, Erythrocyte; conditions: mouse red blood cells (erythrocytes), at 1.95 µg/mL, read-out: Activity
[25] = Hemolytic activity in mouse RBC at 3.9 ug/ml after 1 hr relative to control; format: ADME, cell-based, Erythrocyte; conditions: mouse red blood cells (erythrocytes), read-out: Activity
[26] = Hemolytic activity in mouse RBC at 7.8 ug/ml after 1 hr relative to control; format: ADME, cell-based, Erythrocyte; conditions: mouse red blood cells (erythrocytes), read-out: Activity
[27] = Hemolytic activity in mouse RBC at 31.3 ug/ml after 1 hr relative to control; format: ADME, cell-based, Erythrocyte; conditions: mouse red blood cells (erythrocytes), at 31.3 µg/mL, read-out: Activity
HEK293 = experiment: Cytotoxicity against HEK293 cells up to 31 ug/ml after 24 hrs by resazurin based assay; format: cell-based; conditions: human, hek293, 24 h
Candida albicans [28] = experiment: Induction of membrane permeabilization in Candida albicans ATCC 10231 assessed as membrane disruption at 4 times MIC after 1 hr by propidium iodide staining based fluorescence microscopy; format: functional, organism-based
BEAS-2B = experiment: Cytotoxicity against human BEAS2B cells at 31 ug/ml after 24 hrs by resazurin based assay; format: cell-based
A549 = experiment: Cytotoxicity against human A549 cells at 15.5 ug/ml after 24 hrs by resazurin based assay; format: cell-based; conditions: a549, 24 h

CCCCCCCCNCC(O)(Cn1cncn1)c1ccc(F)cc1F (stereo unspecified)
hemolysis at 1 h, 62.5 ug/ml [1]: 78%
MIC (Cryptococcus neoformans [2]): 10.6 µM (≈ 3.88 µg/mL)
MIC (Candida albicans [3]): 2.7 µM (≈ 0.989 µg/mL)
MIC (Candida albicans [4]): > 85.4 µM
MIC (Candida albicans [5]): 85.4 µM (≈ 31.3 µg/mL)
MIC (Candida albicans [6]): 21.3 µM (≈ 7.81 µg/mL)
MIC (Candida albicans [7]): 85.4 µM (≈ 31.3 µg/mL)
MIC (Candida albicans [8]): 42.6 µM (≈ 15.6 µg/mL)
MIC (Candida albicans [9]): 85.4 µM (≈ 31.3 µg/mL)
MIC (Nakaseomyces glabratus [10]): 2.7 to 21.3 µM (≈ 0.989 to 7.81 µg/mL)
MIC (Pichia kudriavzevii): 2.7 µM (≈ 0.989 µg/mL)
MIC (Candida parapsilosis [11]): 0.16 µM (≈ 0.0586 µg/mL)
MIC (Aspergillus nidulans): 5.3 µM (≈ 1.94 µg/mL)
MIC (Aspergillus flavus): > 85.4 µM
MIC (Aspergillus terreus): 42.6 µM (≈ 15.6 µg/mL)
MIC (Nakaseomyces glabratus [12]): 21.3 µM (≈ 7.81 µg/mL)
MIC (Nakaseomyces glabratus [13]): 2.7 µM (≈ 0.989 µg/mL)
MIC (Nakaseomyces glabratus [14]): 42.6 µM (≈ 15.6 µg/mL)
MIC (Candida parapsilosis [15]): 1.3 µM (≈ 0.476 µg/mL)
MIC (Candida parapsilosis [16]): 0.33 µM (≈ 0.121 µg/mL)
MIC (Cryptococcus neoformans [17]): 5.3 µM (≈ 1.94 µg/mL)
MIC (Cryptococcus neoformans [18]): 10.6 µM (≈ 3.88 µg/mL)
MIC (Candida parapsilosis [19]): 0.65 µM (≈ 0.238 µg/mL)
Activity (Candida albicans [20]): Active
Activity (Candida parapsilosis [21]): Active
hemolysis at 1 h, 0.48 ug/ml [22]: 2%
hemolysis at 1 h, 0.975 ug/ml [23]: 2%
hemolysis at 1 h, 15.6 ug/ml [23]: 3%
hemolysis at 1 h, 1.95 ug/ml [24]: 0%
hemolysis at 1 h, 3.9 ug/ml [25]: 2%
hemolysis at 1 h, 7.8 ug/ml [26]: 0%
hemolysis at 1 h, 31.3 ug/ml [27]: 9%
Activity (HEK293): Non-Toxic
Activity (Candida albicans [28]): inactive
Activity (BEAS-2B): Non-Toxic
Activity (A549): Non-Toxic

Source: ChEMBL document CHEMBL4118101 (Bioorg Med Chem, 2018)
